{
  "source": "patent US20030049337A1",
  "about": "“Composition for preventing fructose absorption” (NAGAOKA PERFUMERY CO., LTD, priority 2001, published 2003)",
  "system": "Wistar SPF rats",
  "conditions": "rat, in vivo",
  "method": "The subacute toxicity test by oral administration was conducted using Wistar SPF rats. That is, the rats were divided into the control group (n=7) to which the athrocytosis of the usual feed is carried out, and the eucalyptus group (n=7) to which the athrocytosis of the feed which mixed the eucalyptus extract of 1 volume % with usual feed is carried out, and bred each individually. The rats of these groups were made to carry out free ingestion of feed and the potable water.\nThe amount of food ingested and the amount of drinking water of rats of these groups were measured every day, and weight change was measured twice per week. The test was continued for five weeks. After the test end, by collecting blood from the heart, rats were made to die and pathological changes, malformation, etc. of each organization, such as internal organs, were confirmed after dissection.",
  "data": [
    {"substance": "eucalyptus extract", "values": [
      {"measurement": "amount of cholesterol in liver vs control group", "value": "significant difference was not observed"},
      {"measurement": "amount of drinking water vs control group", "value": "significant difference was not accepted"},
      {"measurement": "amount of food ingested vs control group", "value": "significant difference was not accepted"},
      {"measurement": "amount of triglyceride in liver vs control group", "value": "significant difference was not observed"},
      {"measurement": "weight change vs control group", "value": "significant difference was not accepted"}
    ]}
  ]
}
